According to patent US20110117054A1, “USE OF RIBAVIRIN IN BLOOD COAGULATION DISORDER” (National University Corporation Nagoya University, priority 2007, published 2011):

Test system: HCV
Assay: HCV eradication in HCV positive hemophilia patients (Working Example 6)
Assay type: in vivo, hepatitis C virus
Settings: Patient No. 6, interferon-α-2b alone prior to administration in this example
Method: In Table 5, the severity of hemophilia was rated as mild when the level of coagulation factors exceeded 5%, moderate when this level was from 1 to 5%, and severe when this level was below 1%. The HCV-RNA level was measured with an Amplicor HCV Assay, version 2 (Roche) at the start of administration. The genotype of the HCV virus was determined from the base sequence of the 5′-UTR region thereof. HCV eradication was indicated as “yes” when HCV-RNA viruses were not detected for 24 weeks following the end of administration. The HIV infection state was determined by the HIV antibodies using a particle agglutination assay kit (Fujirebio Inc.).

Question: With interferon-α-2b as the substance, how does the HCV eradication read?
Answer: Its HCV eradication is “not eradicated”.
